By mortality is commonly meant the percentage killed.

Experimental findings from US20240224991A9, “NANO-DISPERSION COMPRISING CELLULOSE NANOCRYSTAL AS PESTICIDE/FUNGICIDE CARRIERS FOR AGRICULTURE AND AQUACULTURE” (priority 2022, published 2024) are described below.

In the assay the test system is mealworms. As to the kind of experiment: Pest mortality test, mealworms on sprayed spinach leaves. The conditions noted are these: 100 ppm DEL, in 2 hours, FIG. 3C. The assay is classed as in vivo, mealworms (larval form of the mealworm beetles). How it is done: Deltamethrin and permethrin/CNC nano-dispersions with agrochemical and CNC mass ratio of 1:100 were prepared according to the said process in example 5, and they are designated as CNC-DEL and CNC-PER, respectively. The resulting nano-dispersions were diluted to 0.1 wt %, 0.5 wt %, 1.0 wt % and 1.5 wt %, where the corresponding active ingredient concentration was around 10 ppm, 50 ppm, 100 ppm and 150 ppm. To perform the pest control test, fresh spinach leaves were spread on a petri dish (10 cm diameter), then 2 mL of the dispersion was sprayed on top (1 mL) and bottom (1 mL) of the leave surface, and 20 active worms were placed on top of the leaves. The survival rate of the works was recorded at set time intervals. In comparison, the pest control efficiency of 1 wt % CNC (0 ppm DEL) and DEL control (100 ppm DEL) were also investigated and compared with 1.0 wt % CNC-DEL (100 ppm DEL). In addition, the pest control efficiency of CNC-PER was compared with the commercial EC pesticide ORTHO® HOME DEFENSE® MAX™ under the same PER dosage.
Both permethrin and deltamethrin are wide spectrum pesticides that belong to synthetic pyrethroids pesticides. Their mode of action is mainly based on contact and stomach toxicity. The pest control efficiency of CNC-DEL and CNC-PER nano-dispersions were evaluated with two model worms, mealworms and waxworms. […]

Molecules are shown by their SMILES.

With `CC1(C)[C@H](C(=O)O[C@H](C#N)c2cccc(Oc3ccccc3)c2)[C@@H]1C=C(Br)Br` [DEL control, Deltamethrin], the mortality at 100 ppm came out at 30%.
